One may read the IC50 as the concentration that gives 50% inhibition. A higher IC50 goes with lower potency. Usually melting point stands for the temperature of the solid-liquid transition.

In the first data set the target is T1, Met kinase (Homo sapiens, UniProt P08581).
T1 construct: 6His (N); purchased Upstate 14-526; host or cells: Sf21 insect cells (S. frugiperda), baculovirus
T1 sequence (P08581 974-1390 limits assumed): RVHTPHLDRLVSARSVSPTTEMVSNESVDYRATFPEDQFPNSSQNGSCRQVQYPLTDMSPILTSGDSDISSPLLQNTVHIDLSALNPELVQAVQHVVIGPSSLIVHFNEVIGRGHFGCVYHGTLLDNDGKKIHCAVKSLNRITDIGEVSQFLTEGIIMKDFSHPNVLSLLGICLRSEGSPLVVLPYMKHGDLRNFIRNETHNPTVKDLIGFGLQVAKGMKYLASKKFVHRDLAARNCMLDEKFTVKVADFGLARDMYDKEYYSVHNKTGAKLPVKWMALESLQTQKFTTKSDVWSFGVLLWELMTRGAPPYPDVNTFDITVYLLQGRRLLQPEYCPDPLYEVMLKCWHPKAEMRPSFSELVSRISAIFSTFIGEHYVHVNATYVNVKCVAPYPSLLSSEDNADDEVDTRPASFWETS
The data set can be described thus: Met kinase inhibition, enzyme assay (flashplate method). The data set is classed as biochemical. The text has this:
According to the manufacturer's data (Met, active, upstate, catalogue No. 14-526), Met kinase is expressed for the purposes of protein production in insect cells (Sf21; S. frugiperda) and subsequent affinity-chromatographic purification as “N-terminal 6His-tagged” recombinant human protein in a baculovirus expression vector.
The test plates used are 96-well Flashplate® microtitre plates from Perkin Elmer (Cat. No. SMP200). The components of the kinase reaction described below are pipetted into the assay plate. The Met kinase and the substrate poly Ala-Glu-Lys-Tyr, (pAGLT, 6:2:5:1), are incubated for 3 hrs at room temperature with radioactively labelled ^33P-ATP in the presence and absence of test substances in a total volume of 100 μl. The reaction is terminated using 150 μl of a 60 mM EDTA solution. After incubation for a further 30 min at room temperature, the supernatants are filtered off with suction, and the wells are washed three times with 200 μl of 0.9% NaCl solution each time. The measurement of the bound radioactivity is carried out by means of a scintillation measuring instrument (Topcount NXT, Perkin-Elmer).
The full value used is the inhibitor-free kinase reaction. This should be approximately in the range 6000-9000 cpm. The pharmacological zero value used is staurosporin in a final concentration of […]. The inhibitory values ([…]) are determined using the RS1_MTS program.
Kinase reaction conditions per well:
• 30 μl of assay buffer • 10 μl of substance to be tested in assay buffer with 10% of DMSO • 10 μl of ATP (final concentration 1 μM cold, 0.35 μCi of ^33P-ATP) • 50 μl of Met kinase/substrate mixture in assay buffer; • (10 ng of enzyme/well, 50 ng of pAGLT/well)
Solutions used: • Assay buffer:
50 mM HEPES • 3 mM magnesium chloride • 3 μM sodium orthovanadate • 3 mM manganese(II) chloride • 1 mM dithiothreitol (DTT)
pH=7.5 (to be set using sodium hydroxide) • Stop solution:
60 mM Titriplex III (EDTA) • ^33P-ATP: Perkin-Elmer; • Met kinase: Upstate, Cat. No. 14-526, Stock 1 μg/10 μl; spec. activity 954 U/mg; • Poly-Ala-Glu-Lys-Tyr, 6:2:5:1: Sigma Cat. No. P1152 In-vivo tests
`CO[C@@H](C)[C@H](N)C(=O)NCCOc1cnc(-c2cccc(Cn3nc(-c4cnn(C)c4)ccc3=O)c2)nc1` [Compound A1, (2S,3S)-2-amino-3-methoxy-N-[2-(2-{3-[3-(1-methyl-1H-pyrazol-4-yl)-6-oxo-6H-pyridazin-1-ylmethyl]phenyl}pyrimidin-5-yloxy)ethyl]-butyramide] yielded an IC50 of 10 to 1000 nM. Same read-out and setting: under `Cn1cc(-c2ccc(=O)n(Cc3cccc(-c4ncc(OCCNC(=O)[C@@H]5C[C@@H](O)CN5)cn4)c3)n2)cn1` [Compound A2, N-[2-(2-{3-[3-(1-Methyl-1H-pyrazol-4-yl)-6-oxo-6H-pyridazin-1-ylmethyl]-phenyl}pyrimidin-5-yloxy)ethyl]-(2S,4R)-4-hydroxypyrrolidine-2-carboxamide] stands 10 to 1000 nM; under `Cn1cc(-c2ccc(=O)n(Cc3cccc(-c4ncc(OCCNC(=O)[C@@H]5CCCN5)cn4)c3)n2)cn1` [Compound A3], 10 to 1000 nM; under `N#Cc1cccc(-c2ccc(=O)n(Cc3cccc(-c4ncc(OCCNC(=O)[C@@H]5C[C@@H](O)CN5)cn4)c3)n2)c1` [Compound A4, N-[2-(2-{3-[3-(3-Cyanophenyl)-6-oxo-6H-pyridazin-1-ylmethyl]phenyl}-pyrimidin-5-yloxy)ethyl]-(2S,4R)-4-hydroxypyrrolidine-2-carboxamide], 10 to 1000 nM.

On to `N#Cc1cccc(-c2ccc(=O)n(Cc3cccc(-c4ncc(OCCNC(=O)[C@@H]5CCCN5)cn4)c3)n2)c1` [Compound A5, N-[2-(2-{3-[3-(3-Cyanophenyl)-6-oxo-6H-pyridazin-1-ylmethyl]phenyl}-pyrimidin-5-yloxy)ethyl]-(S)-pyrrolidine-2-carboxamide], for which the IC50 fell in the range of 10 to 1000 nM. In turn, `CO[C@@H](C)[C@H](N)C(=O)NCCOc1cnc(-c2cccc(Cn3nc(-c4cccc(C#N)c4)ccc3=O)c2)nc1` [Compound A6, (2S,3S)-2-Amino-N-[2-(2-{3-[3-(3-cyanophenyl)-6-oxo-6H-pyridazin-1-yl-methyl]phenyl}pyrimidin-5-yloxy)ethyl]-3-methoxybutyramide] registered an IC50 of 10 to 1000 nM. The same measure, in the same setting: under `CC(=O)N[C@H](C(=O)NCCOc1cnc(-c2cccc(Cn3nc(-c4cnn(C)c4)ccc3=O)c2)nc1)C(C)C` [Compound A7, (S)-2-acetylamino-3-methyl-N-[2-(2-{3-[3-(1-methyl-1H-pyrazol-4-yl)-6-oxo-6H-pyridazin-1-ylmethyl]phenyl}pyrimidin-5-yloxy)ethyl]-butyramide] stands 10 to 1000 nM; under `CC(=O)N[C@H](C(=O)NCCOc1cnc(-c2cccc(Cn3nc(-c4cccc(C#N)c4)ccc3=O)c2)nc1)C(C)C` [Compound A8, (S)-2-acetylamino-N-[2-(2-{3-[3-(3-cyanophenyl)-6-oxo-6H-pyridazin-1-yl-methyl]phenyl}pyrimidin-5-yloxy)ethyl]-3-methylbutyramide], 10 to 1000 nM.

The molecule `N#Cc1cccc(-c2ccc(=O)n(Cc3cccc(-c4ncc(O[C@@H]5CN[C@H](C(=O)O)C5)cn4)c3)n2)c1` [Compound A10, (2S,4S)-4-(2-{3-[3-(3-cyanophenyl)-6-oxo-6H-pyridazin-1-yl-methyl]phenyl}pyrimidin-5-yloxy)pyrrolidine-2-carboxylic acid] had an IC50 of 10 to 1000 nM. Still for that read-out and setting: under `Cn1cc(-c2ccc(=O)n(Cc3cccc(-c4ncc(OCCC[C@H](N)C(=O)O)cn4)c3)n2)cn1` [Compound A11, (S)-2-Amino-5-(2-{3-[3-(1-methyl-1H-pyrazol-4-yl)-6-oxo-6H-pyridazin-1-yl-methyl]phenyl}pyrimidin-5-yloxy)pentanoic acid] stands 10 to 1000 nM. `CN(C)CC1CCC(COc2cnc(-c3cccc(Cn4nc(-c5cnn(C)c5)ccc4=O)c3)nc2)CC1` (stereo not shown) [Compound A13, 2-{3-[5-(4-dimethylaminomethylcyclohexylmethoxy)pyrimidin-2-yl]benzyl}-6-(1-methyl-1H-pyrazol-4-yl)-2H-pyridazin-3-one] returned an IC50 of 10 to 1000 nM. `Cn1cc(-c2ccc(=O)n(Cc3cccc(-c4ncc(OCC5CCC(CN)CC5)cn4)c3)n2)cn1` (stereo not shown) [Compound A13a, 2-{3-[5-(4-aminomethylcyclohexylmethoxy)pyrimidin-2-yl]benzyl}-6-(1-methyl-1H-pyrazol-4-yl)-2H-pyridazin-3-one] yielded an IC50 of 10 to 1000 nM. Same read-out and setting: next, `N#Cc1cccc(-c2ccc(=O)n(Cc3cccc(-c4ncc(OCC5CCC(CN)CC5)cn4)c3)n2)c1` (stereo not shown) [Compound A13b, 3-(1-{3-[5-(4-Aminomethylcyclohexylmethoxy)pyrimidin-2-yl]benzyl}-6-oxo-1,6-dihydropyridazin-3-yl)benzonitrile]: 10 to 1000 nM. Molecule `N#Cc1cccc(-c2ccc(=O)n(Cc3cccc(-c4ncc(OCC5CC5CN)cn4)c3)n2)c1` (stereo not shown) [Compound A13c, 3-(1-{3-[5-(2-Aminomethylcyclopropylmethoxy)pyrimidin-2-yl]benzyl}-6-oxo-1,6-dihydropyridazin-3-yl)benzonitrile] returned an IC50 of 10 to 1000 nM.

On to `Cn1cc(-c2ccc(=O)n(Cc3cccc(-c4ncc(OCC5(CN)CC5)cn4)c3)n2)cn1` [Compound A14, 2-{3-[5-(1-Aminomethylcyclopropylmethoxy)pyrimidin-2-yl]benzyl}-6-(1-methyl-1H-pyrazol-4-yl)-2H-pyridazin-3-one], for which the IC50 lay within 10 to 1000 nM. On the same count and under the same terms, under `N#Cc1cccc(-c2ccc(=O)n(Cc3cccc(-c4ncc(OCC5(CN)CC5)cn4)c3)n2)c1` [Compound A15, 3-(1-{3-[5-(1-Aminomethylcyclopropylmethoxy)pyrimidin-2-yl]benzyl}-6-oxo-1,6-dihydropyridazin-3-yl)benzonitrile] stands 10 to 1000 nM; under `CN(C)C[C@H]1C[C@@H]1COc1cnc(-c2cccc(Cn3nc(-c4cccc(C#N)c4)ccc3=O)c2)nc1` [Compound A17, 3-(1-{3-[5-((1S,2S)-2-Dimethylaminomethylcyclopropylmethoxy)pyrimidin-2-yl]benzyl}-6-oxo-1,6-dihydropyridazin-3-yl)benzonitrile], 10 to 1000 nM.

As for `N#Cc1cccc(-c2ccc(=O)n(Cc3cccc(-c4ncc(O[C@H]5CCC[C@H]5N)cn4)c3)n2)c1` [Compound A19, 3-(1-{3-[5-((1S,2R)-2-Aminocyclopentyloxy)pyrimidin-2-yl]benzyl}-6-oxo-1,6-dihydropyridazin-3-yl)benzonitrile], the IC50 lay in the range of 10 to 1000 nM. The same measure, in the same setting: under `Cn1cc(-c2ccc(=O)n(Cc3cccc(-c4ncc(O[C@H]5CCC[C@H]5N)cn4)c3)n2)cn1` [Compound A20, 2-{3-[5-((1S,2R)-2-Aminocyclopentyloxy)pyrimidin-2-yl]benzyl}-6-(1-methyl-1H-pyrazol-4-yl)-2H-pyridazin-3-one] stands 10 to 1000 nM; under `N#Cc1cccc(-c2ccc(=O)n(Cc3cccc(-c4ncc(OC5CCC(O)C5)cn4)c3)n2)c1` (stereo not shown) [Compound A23, 3-(1-{3-[5-(3-Hydroxycyclopentyloxy)pyrimidin-2-yl]benzyl}-6-oxo-1,6-dihydro-pyridazin-3-yl)benzonitrile], 10 to 1000 nM.

With `N#Cc1cccc(-c2ccc(=O)n(Cc3cccc(-c4ncc(OCC5CCN(CC6CC6)CC5)cn4)c3)n2)c1` [Compound A24, 3-(1-{3-[5-(1-cyclopropylmethylpiperidin-4-ylmethoxy)-pyrimidin-2-yl]benzyl}-6-oxo-1,6-dihydropyridazin-3-yl)benzonitrile], the IC50 is 10 to 1000 nM. In turn, `CC(C)(C)OC(=O)NCCOc1cnc(-c2cccc(Cn3nc(-c4cccc(C#N)c4)ccc3=O)c2)nc1` [Compound B2, tert-butyl [2-(2-{3-[3-(3-cyanophenyl)-6-oxo-6H-pyridazin-1-ylmethyl]phenyl}-pyrimidin-5-yloxy)ethyl]carbamate] came in with an IC50 of 10 to 1000 nM.

System in the next data set: not given
Experiment: not given
In turn, `CNC(=O)COc1cnc(-c2cccc(Cn3nc(-c4cnn(C)c4)ccc3=O)c2)nc1` [Compound A27, N-Methyl-2-(2-{3-[3-(1-methyl-1H-pyrazol-4-yl)-6-oxo-6H-pyridazin-1-ylmethyl]phenyl}pyrimidin-5-yloxy)acetamide] returned a melting point of 242 to 243 °C. On the same count and under the same terms, under `N#Cc1cccc(-c2ccc(=O)n(Cc3cccc(-c4ncc(OCCN5CCNCC5)cn4)c3)n2)c1` [Compound C5, 3-(6-oxo-1-{3-[5-(2-piperazin-1-ylethoxy)pyrimidin-2-yl]benzyl}-1,6-dihydro-pyridazin-3-yl)benzonitrile] stands 149 to 150 °C. Same read-out and setting: under `CC(C)(C)OC(=O)N1CCC(COc2cnc(-c3cccc(Cn4nc(-c5cccc(C(N)=O)c5)ccc4=O)c3)nc2)CC1` [Compound C18, tert-butyl 4-(2-{3-[3-(3-carbamoylphenyl)-6-oxo-6H-pyridazin-1-ylmethyl]-phenyl}pyrimidin-5-yloxymethyl)piperidine-1-carboxylate] stands 197 to 198 °C.

(Values after patent publication US8637518B2, “Pyridazinone derivatives” (MERCK PATENT GmbH, priority 2008, dated 2014).)
